In US7285564B2, “Substituted 4-amino-1-(pyridylmethyl)piperidine and related compounds” (Theravance, Inc., priority 2002, dated 2007):
pKi: −log10 of the molar value.

What was measured:
[1] = system: oxotremorine-induced salivation; assay: In vivo rat salivation assay
Method: Female Sprague-Dawley rats weighing 200 to 300 g were anesthetized with urethane (1.5 g/kg, s.c., Sigma, St. Louis, Mo.), with a supplement of 0.25 g/kg, s.c. urethane as needed. Urethane was administered at a concentration of 0.25 g/mL.
Rats were placed on a heated blanket on their dorsal side in an inclined position (20° angle) position (head down). A swab was placed in the rat's mouth. The test compound or vehicle was administered intravenously via the tail vein. After 5 min., oxotremorine (1.0 mg/kg) was administered subcutaneously. The swab was discarded and
Replaced by a pre-weighed swab. Saliva was then collected for 10 min. and then the swab was removed and re-weighed to determine the output of saliva. Dose-response curves were fitted with a four parameter logistic equation to obtain estimates of ID50 (dose required to produce 50% of the maximal response).
By comparing the ID50 values determined in the rat bladder assay and rat salivation assay, the in vivo bladder/salivation selectivity ratio was calculated for the compounds tested.

[2] = target: T1, hM2 muscarinic receptor subtype (Homo sapiens, UniProt P08172); assay: Radioligand binding assay ([3H]NMS displacement), hM2; settings: [3H]NMS at 1 nM; membranes of CHO cells expressing hM2
T1 construct: expressed in transfected cells; membranes prepared
T1 sequence (P08172 1-466): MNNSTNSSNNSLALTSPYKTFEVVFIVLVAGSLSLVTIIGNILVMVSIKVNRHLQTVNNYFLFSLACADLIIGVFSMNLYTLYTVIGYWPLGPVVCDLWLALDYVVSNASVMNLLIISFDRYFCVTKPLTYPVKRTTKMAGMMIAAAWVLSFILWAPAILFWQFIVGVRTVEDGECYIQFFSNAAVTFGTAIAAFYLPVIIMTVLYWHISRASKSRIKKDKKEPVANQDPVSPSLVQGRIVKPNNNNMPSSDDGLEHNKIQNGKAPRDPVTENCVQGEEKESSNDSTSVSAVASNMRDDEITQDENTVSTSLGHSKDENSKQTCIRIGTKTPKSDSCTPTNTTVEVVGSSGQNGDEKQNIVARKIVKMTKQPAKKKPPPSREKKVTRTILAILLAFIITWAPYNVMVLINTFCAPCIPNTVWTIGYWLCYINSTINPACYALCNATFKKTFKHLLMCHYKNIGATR
Method: CHO (Chinese hamster ovary) cell lines stably expressing cloned human hM1, hM2, hM3 and hM4 muscarinic receptor subtypes, respectively, were grown to near confluency in medium consisting of HAM's F-12 supplemented with 10% FBS (Fetal Bovine Serum) and 250 μg/mL Geneticin. The cells were grown in a 5% CO2, 37° C. incubator and lifted with dPBS+2 mM EDTA. Cells were collected by 5 minute centrifugation at 650×g, and cell pellets were either stored frozen at −80° C. or membranes were prepared immediately. For membrane preparation, cell pellets were resuspended in lysis buffer and homogenized with a Polytron PT-2100 tissue disrupter (Kinematica AG; 20 seconds×2 bursts). Crude membranes were centrifuged at 40,000×g for 15 minutes at 4° C. […] Protein concentration of the membrane suspension was determined by the method of Lowry, O. et al., (1951) […]: 193, 265. […]
Radioligand binding assays were performed in 96-well microtiter plates in a total assay volume of 100 μL. […] Filter plates were rinsed three times with wash buffer (10 mM HEPES) to remove unbound radioactivity. […] The plates were then counted in a PerkinElmer Topcount liquid scintillation counter (PerkinElmer Inc., Wellesley, Mass.). Binding data were analyzed by nonlinear regression analysis with the GraphPad Prism Software package (GraphPad Software, Inc., San Diego, Calif.) using the one-site competition model. […]

COc1ccncc1CN1CCC(N(CCCCCCCN2CC[C@@H](C(C(N)=O)(c3ccccc3)c3ccccc3)C2)C(C)C)CC1 [Example 1]
ID50 (salivation) ([1]; intravenous, anesthetized female Sprague-Dawley rats, oxotremorine 1.0 mg/kg s.c.): greater than or equal to 0.9 mg/kg | ID50 bladder/salivation selectivity ratio ([1]; rat bladder assay vs rat salivation assay): greater than 20 | pKi [2]: > 9.00
